IC50 data for 31 compounds are collected here from patent US9382197B2, “Substituted hydroxamic acids and uses thereof” (Millennium Pharmaceuticals, Inc., priority 2010, dated 2016).

The structures appear in SMILES notation. A value given as a limit tells only on which side of the number the result lay.

The target in one assay is T1, purified human HDAC6 (Homo sapiens, UniProt Q9UBN7).
T1 construct: purchased BPS Bioscience 5006
T1 sequence (Q9UBN7 1-1215): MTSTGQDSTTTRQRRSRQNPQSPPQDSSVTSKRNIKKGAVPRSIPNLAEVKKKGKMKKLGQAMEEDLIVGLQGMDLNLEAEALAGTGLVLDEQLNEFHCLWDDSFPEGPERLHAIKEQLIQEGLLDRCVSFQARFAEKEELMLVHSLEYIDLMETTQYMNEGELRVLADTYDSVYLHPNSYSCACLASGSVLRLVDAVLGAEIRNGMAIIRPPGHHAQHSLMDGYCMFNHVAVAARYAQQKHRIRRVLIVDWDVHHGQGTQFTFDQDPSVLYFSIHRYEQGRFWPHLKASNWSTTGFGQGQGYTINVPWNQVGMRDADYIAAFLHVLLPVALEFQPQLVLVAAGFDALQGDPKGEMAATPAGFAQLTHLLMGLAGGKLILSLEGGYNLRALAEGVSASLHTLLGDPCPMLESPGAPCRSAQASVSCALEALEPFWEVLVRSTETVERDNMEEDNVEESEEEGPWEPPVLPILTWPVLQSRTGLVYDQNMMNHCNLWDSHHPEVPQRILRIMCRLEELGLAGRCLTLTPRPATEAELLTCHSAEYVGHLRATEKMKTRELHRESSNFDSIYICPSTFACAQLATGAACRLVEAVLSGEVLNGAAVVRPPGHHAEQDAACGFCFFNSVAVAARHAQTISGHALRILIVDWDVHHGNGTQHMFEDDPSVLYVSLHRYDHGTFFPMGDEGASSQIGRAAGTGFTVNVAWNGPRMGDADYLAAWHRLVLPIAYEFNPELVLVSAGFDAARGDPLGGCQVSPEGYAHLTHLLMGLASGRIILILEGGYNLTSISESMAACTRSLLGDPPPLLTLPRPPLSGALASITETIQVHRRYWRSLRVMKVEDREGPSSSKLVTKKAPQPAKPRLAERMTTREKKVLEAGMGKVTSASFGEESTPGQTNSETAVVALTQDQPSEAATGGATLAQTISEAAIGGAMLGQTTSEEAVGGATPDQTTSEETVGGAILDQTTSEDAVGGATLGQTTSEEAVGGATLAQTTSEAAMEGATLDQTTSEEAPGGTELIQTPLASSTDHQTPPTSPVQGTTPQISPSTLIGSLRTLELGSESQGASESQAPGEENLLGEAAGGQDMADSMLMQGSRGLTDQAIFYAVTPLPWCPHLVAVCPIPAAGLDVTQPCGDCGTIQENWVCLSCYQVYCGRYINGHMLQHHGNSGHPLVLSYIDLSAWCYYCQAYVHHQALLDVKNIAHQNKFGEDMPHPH
Description: HDAC6 Enzyme Assay. In kind it is biochemical. Particulars: bin: greater than 500 nM and less than 1 μM (lower bound in nM, upper bound in μM). A digest of the protocol: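 Deacetylated product quantified after trypsin digestion as released AMC (340/460 nm), following a 1 h, 30 °C reaction of human HDAC6 with Ac-RGK(Ac)-AMC peptide, quenched by trichostatin A. IC50 derived from DMSO-normalized curves.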
Take `CCC[C@H](NC(=O)C(C)(C)C)c1ccc(C(=O)NO)cc1` [Compound I-536, 4-{(1S)-1-[(2,2-dimethylpropanoyl)amino]butyl}-N-hydroxybenzamide]: the IC50 was 500 to 1000 nM.

On to `CCc1cc(C(=O)NC(C)c2cccc(C(=O)NO)c2)n(C)n1` (stereo not shown) [Compound I-216, 3-ethyl-N-(1-{3-[(hydroxyamino)carbonyl]phenyl}ethyl)-1-methyl-1H-pyrazole-5-carboxamide], for which the IC50 was 500 to 1000 nM.

`Cc1cc(C(=O)NC(C)c2cccc(C(=O)NO)c2)c(C)[nH]1` (stereo not shown) [Compound I-181, N-(1-{3-[(hydroxyamino)carbonyl]phenyl}ethyl)-2,5-dimethyl-1H-pyrrole-3-carboxamide] had an IC50 of 500 to 1000 nM.

The same assay, now with this note: bin: greater than 1 μM.
Turning to `C[C@@H](NC(=O)C1(C)CCCCC1)c1cccc(C(=O)NO)c1` [Compound I-283, N-hydroxy-3-((1R)-1-{[(1-methylcyclohexyl)carbonyl]amino}ethyl)benzamide], the IC50 is above 1000 nM.

The compound `CC(NC(=O)c1nc2ccccc2n1C)c1cccc(C(=O)NO)c1` (stereo not shown) [Compound I-100, N-(1-{3-[(hydroxyamino)carbonyl]phenyl}ethyl)-1-methyl-1H-benzimidazole-2-carboxamide] came in with an IC50 above 1000 nM.

As to `COc1ccc(CC(=O)NC(C)c2ccc(C(=O)NO)cc2)cc1` (stereo not shown) [Compound I-159, N-hydroxy-4-(1-{[(4-methoxyphenyl)acetyl]amino}ethyl)benzamide], the IC50 was above 1000 nM.

Regarding `Cn1c(C(=O)NC(c2ccc(C(=O)NO)cc2)C(C)(C)C)cc2oc(-c3ccc(C(C)(C)C)cc3)cc21` (stereo not shown) [Compound I-337, 2-(4-tert-butylphenyl)-N-(1-{4-[(hydroxyamino)carbonyl]phenyl}-2,2-dimethylpropyl)-4-methyl-4H-furo[3,2-b]pyrrole-5-carboxamide], the IC50 was above 1000 nM.

Consider `CC(NC(=O)c1cc2oc(-c3ccc(C(C)(C)C)cc3)cc2n1C)c1cccc(C(=O)NO)c1` (stereo not shown) [Compound I-324, 2-(4-tert-butylphenyl)-N-(1-{3-[(hydroxyamino)carbonyl]phenyl}ethyl)-4-methyl-4H-furo[3,2-b]pyrrole-5-carboxamide], for which the IC50 was above 1000 nM.

Staying with this assay, now noted: purified human HDAC6, substrate Ac-Arg-Gly-Lys(Ac)-AMC, 1 hour at 30° C.; reported as bins.
For the compound `Cc1ccc2[nH]c(C(=O)NC(c3ccc(C(=O)NO)cc3)C(C)(C)C)c(C)c2c1` (stereo not shown) [Compound I-329, N-(1-{4-[(hydroxyamino)carbonyl]phenyl}-2,2-dimethylpropyl)-3,5-dimethyl-1H-indole-2-carboxamide], the IC50 was below 100 nM.

For the compound `CC(NC(=O)c1ccc2occc2c1)c1ccc(C(=O)NO)cc1` (stereo not shown) [Compound I-349, N-(1-{4-[(hydroxyamino)carbonyl]phenyl}ethyl)-1-benzofuran-5-carboxamide], the IC50 is below 100 nM.

The compound `CC(NC(=O)C(C)(C)c1ccc(Cl)cc1)c1ccc(C(=O)NO)cc1` (stereo not shown) [Compound I-378, 4-(1-{[2-(4-chlorophenyl)-2-methylpropanoyl]amino}ethyl)-N-hydroxybenzamide] displayed an IC50 below 100 nM.

With `CC(C)[C@@H](NC(=O)Nc1ccc(C#N)cc1)c1ccc(C(=O)NO)cc1` [Compound I-525, 4-[(1R)-1-({[(4-cyanophenyl)amino]carbonyl}amino)-2-methylpropyl]-N-hydroxybenzamide], the IC50 was below 100 nM.

For `Cc1nn(C)cc1C(=O)NC(c1ccc(C(=O)NO)cc1)C(C)(C)C` (stereo not shown) [Compound I-86, N-(1-{4-[(hydroxyamino)carbonyl]phenyl}-2,2-dimethylpropyl)-1,3-dimethyl-1H-pyrazole-4-carboxamide], the IC50 was 100 to 500 nM.

In turn, `CCc1ccc(NC(=O)NC(C)c2ccc(C(=O)NO)cc2)cc1` (stereo not shown) [Compound I-381, 4-[1-({[(4-ethylphenyl)amino]carbonyl}amino)ethyl]-N-hydroxybenzamide] gave an IC50 below 100 nM.

The compound `CC(NC(=O)c1ccc(Cl)cc1)c1ccc(C(=O)NO)cc1` (stereo not shown) [Compound I-136, 4-chloro-N-(1-{4-[(hydroxyamino)carbonyl]phenyl}ethyl)benzamide] returned an IC50 below 100 nM.

As to `CC(C)(C)C(NC(=O)c1cc2cc(Cl)ccc2o1)c1ccc(C(=O)NO)cc1` (stereo not shown) [Compound I-270, 5-chloro-N-(1-{4-[(hydroxyamino)carbonyl]phenyl}-2,2-dimethylpropyl)-1-benzofuran-2-carboxamide], the IC50 fell in the range of 100 to 500 nM.

For `O=C(NO)c1ccc([C@H](NC(=O)c2ccc(-c3ccccc3)cc2)C(F)(F)F)cc1` [Compound I-296, N-((1S)-2,2,2-trifluoro-1-{4-[(hydroxyamino)carbonyl]phenyl}ethyl)biphenyl-4-carboxamide], the IC50 is below 100 nM.

`CCC[C@@H](NC(=O)C(C)(C)C)c1ccc(C(=O)NO)cc1` [Compound I-365, 4-{(1R)-1-[(2,2-dimethylpropanoyl)amino]butyl}-N-hydroxybenzamide] displayed an IC50 below 100 nM.

On to `CC(C)[C@@H](NC(=O)NC(C)(C)C)c1ccc(C(=O)NO)cc1` [Compound I-368, 4-((1R)-1-{[(tert-butylamino)carbonyl]amino}-2-methylpropyl)-N-hydroxybenzamide], for which the IC50 was 100 to 500 nM.

For the compound `CC(NS(=O)(=O)c1ccc(-c2cnco2)cc1)c1ccc(C(=O)NO)cc1` (stereo not shown) [Compound I-178, N-hydroxy-4-[1-({[4-(1,3-oxazol-5-yl)phenyl]sulfonyl}amino)ethyl]benzamide], the IC50 was 100 to 500 nM.

Regarding `CCC[C@@H](NC(=O)c1cc(Cl)c(Cl)n1C)c1ccc(C(=O)NO)cc1` [Compound I-245, 4,5-dichloro-N-((1R)-1-{4-[(hydroxyamino)carbonyl]phenyl}butyl)-1-methyl-1H-pyrrole-2-carboxamide], the IC50 is below 100 nM.

Consider `CC(NC(=O)Nc1ccccc1Oc1ccccc1)c1ccc(C(=O)NO)cc1` (stereo not shown) [Compound I-31, N-hydroxy-4-[1-({[(2-phenoxyphenyl)amino]carbonyl}amino)ethyl]benzamide], for which the IC50 was below 100 nM.

In the case of `CC(NC(=O)c1cc2ccccc2o1)c1ccc(C(=O)NO)cc1` (stereo not shown) [Compound I-207, N-(1-{4-[(hydroxyamino)carbonyl]phenyl}ethyl)-1-benzofuran-2-carboxamide], the IC50 is below 100 nM.

`Cc1nc(C(=O)NC(C)c2ccc(C(=O)NO)cc2)cs1` (stereo not shown) [Compound I-278, N-(1-{4-[(hydroxyamino)carbonyl]phenyl}ethyl)-2-methyl-1,3-thiazole-4-carboxamide]: the IC50 was below 100 nM.

Consider `CCC[C@@H](NC(=O)c1oc2ccccc2c1C)c1ccc(C(=O)NO)cc1` [Compound I-367, N-((1R)-1-{4-[(hydroxyamino)carbonyl]phenyl}butyl)-3-methyl-1-benzofuran-2-carboxamide], for which the IC50 is below 100 nM.

Take `CC(C)[C@@H](Nc1nc(-c2cc(-c3ccccc3)no2)cs1)c1ccc(C(=O)NO)cc1` [Compound I-519, N-hydroxy-4-((1R)-2-methyl-1-{[4-(3-phenylisoxazol-5-yl)-1,3-thiazol-2-yl]amino}propyl)benzamide]: the IC50 is below 100 nM.

In turn, `Cc1cccc(NC(=O)NC(C)c2ccc(C(=O)NO)cc2)c1C` (stereo not shown) [Compound I-175, 4-[1-({[(2,3-dimethylphenyl)amino]carbonyl}amino)ethyl]-N-hydroxybenzamide] returned an IC50 below 100 nM.

As for `Cc1ccc(S(=O)(=O)NC(C)c2ccc(C(=O)NO)cc2)c(C)c1` (stereo not shown) [Compound I-78, 4-(1-{[(2,4-dimethylphenyl)sulfonyl]amino}ethyl)-N-hydroxybenzamide], the IC50 was in the range of 100 to 500 nM.

`C[C@@H](NC(=O)c1cc2oc(-c3ccccc3)cc2n1C)c1cccc(C(=O)NO)c1` [Compound I-16, N-((1R)-1-{3-[(hydroxyamino)carbonyl]phenyl}ethyl)-4-methyl-2-phenyl-4H-furo[3,2-b]pyrrole-5-carboxamide] came in with an IC50 of 100 to 500 nM.

The compound `Cn1cc(C(=O)NC(c2ccc(C(=O)NO)cc2)C(C)(C)C)c2ccccc21` (stereo not shown) [Compound I-107, N-(1-{4-[(hydroxyamino)carbonyl]phenyl}-2,2-dimethylpropyl)-1-methyl-1H-indole-3-carboxamide] gave an IC50 below 100 nM.

In turn, `C[C@@H](NC(=O)c1ccc(-c2ccccc2)cc1)c1ccc(C(=O)NO)cc1` [Compound I-92, N-((1R)-1-{4-[(hydroxyamino)carbonyl]phenyl}ethyl)biphenyl-4-carboxamide] came in with an IC50 below 100 nM.
